The subject of the data set is rat chronic carcinogenicity bioassay, TD50. Put plainly: DSSTox (CPDBAS) Carcinogenic Potency Database Summary Rat Bioassay Results. Particulars: for Potency: active compounds read low; for outcome: TD50_Rat_Note: no positive results. In a few lines:
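Chronic long-term rat cancer bioassays from literature and NCI/NTP, taking the most positive result per sex. TD50 in mmol converted to a 1–100 Activity Score from log10(1/TD50). Mixtures lacking TD50 scored 50.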

Where [1] appears, read: TargetSites_Rat_Female: no positive results.
Setting [2] is: TD50_Rat_Note: TD50 is harmonic mean of more than one positive test, TargetSites_Rat_Female: stomach.

These results are taken from PubChem BioAssay AID1208 (EPA DSSTox, 2008).

Structures are written as SMILES. Active and inactive are the calls of the source.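 Rule for the calls: active = at least one rat sex group has a carcinogenic potency value and tumor site recorded; inconclusive = only rat studies were judged inadequate by the national testing program; inactive = no potency or tumor site, with negative rat experiments.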

Take `C[C@]12C=CC(=O)C=C1CC[C@@H]1[C@@H]2[C@@H](O)C[C@@]2(C)[C@H]1CC[C@]2(O)C(=O)COC(=O)CCCc1ccc(N(CCCl)CCCl)cc1`: the Potency (TargetSites_Rat_Female: ear Zymbals gland) is 19.2 mg/kg/day.

On to `Cc1cc(O)ccc1O`, for which the outcome is “inactive; no positive results”. Turning to `CCOP(=S)(OCC)Oc1cc(C)nc(C(C)C)n1`, the outcome under setting [1] is “inactive; no positive results”. Regarding `O=S1OCC2C(CO1)C1(Cl)C(Cl)=C(Cl)C2(Cl)C1(Cl)Cl` (stereo not drawn), the outcome under setting [1] was “inactive; no positive results”. On to `Cc1ccc(S(=O)(=O)Oc2ccc(N=Nc3ccc(-c4ccc(N=Nc5c(O)ccc6cc(S(=O)(=O)O)cc(S(=O)(=O)O)c56)c(C)c4)cc3C)cc2)cc1`, for which the Potency (TD50_Rat_Note: TD50 is harmonic mean of more than one positive test, TargetSites_Rat_Female: clitoral gland, ear Zymbals gland, large intestine, liver, lung, oral cavity, skin, small intestine) is 3.89 mg/kg/day. Consider `CCNC(=O)Nc1ncc([N+](=O)[O-])s1`, for which the Potency (TargetSites_Rat_Female: mammary gland) is 131 mg/kg/day.

For `c1ccc(Nc2ccc3ccccc3c2)cc1`, the outcome under setting [1] was “inactive; no positive results”. On the same count and under the same terms, the result for `O=[N+]([O-])c1cccc2ccccc12` reads “inactive; no positive results”; that for `O=[N+]([O-])/C=C/c1ccccc1`, “inactive; no positive results”. Take `CC(=O)CN(CC(C)=O)N=O`: under “TD50_Rat_Note: TD50 is harmonic mean of more than one positive test, TargetSites_Rat_Female: liver, lung, vascular system”, the Potency was 0.491 mg/kg/day. As to `CC(=O)Nc1nc(-c2ccc([N+](=O)[O-])o2)cs1`, the Potency (TD50_Rat_Note: TD50 is harmonic mean of more than one positive test, TargetSites_Rat_Female: mammary gland) is 17.8 mg/kg/day.

On to `CCN=[N+]([O-])CC`, for which the Potency was 0.022 mg/kg/day. Regarding `C=CCN(N=O)C(N)=O`, where the note is “TD50_Rat_Note: TD50 is harmonic mean of more than one positive test, TargetSites_Rat_Female: mammary gland, stomach, uterus”, the Potency was 0.341 mg/kg/day.

`O=[N+]([O-])c1ccc2ccc3cccc4ccc1c2c34`: for the setting “TargetSites_Rat_Female: clitoral gland, hematopoietic system, mammary gland”, the Potency was 3.33 mg/kg/day. Consider `Clc1nc(Cl)nc(Nc2ccccc2Cl)n1`, for which, under setting [1], the outcome was “inactive; no positive results”.

For `CC(O)CNC(=O)N(N=O)C(C)Cl` (stereo not drawn), the Potency under setting [1] was 0.124 mg/kg/day. The same measure, in the same setting: the result for `ClCc1cccnc1` reads 433 mg/kg/day.

With `Cc1cccc(C)c1N`, the outcome is “inactive; no positive results”. As for `C=COC(C)=O`, under “TD50_Rat_Note: TD50 is harmonic mean of more than one positive test, greater than ten-fold variation among TD50 values for positive res, TargetSites_Rat_Female: liver, nasal cavity, thyroid gland, uterus”, the Potency was 341 mg/kg/day. `O=[N+]([O-])c1ccc2ncccc2c1`: the outcome under setting [1] is “inactive; no positive results”. With `C=CC(=O)OCC`, under setting [2], the Potency was 119 mg/kg/day.

On to `C1CC2OC2CC1C1CO1` (stereo not drawn), for which the result under setting [1] was inactive. The same measure, in the same setting: the entry for `CC(Cl)(Cl)Cl` is “inactive; no positive results”. Still for that read-out and setting: the result for `CCN(CC)C(=S)S[Te](SC(=S)N(CC)CC)(SC(=S)N(CC)CC)SC(=S)N(CC)CC` reads “inactive; no positive results”. As to `CN(CCCC(=O)c1cccnc1)N=O`, the Potency (TD50_Rat_Note: TD50 is harmonic mean of more than one positive test) is 0.0999 mg/kg/day. For `NC(=S)Nc1ccccc1`, the outcome under setting [1] is “inactive; no positive results”. As for `CN(C)CCOC(C)(c1ccccc1)c1ccccn1` (stereo not drawn), under setting [1], the Potency is 1610 mg/kg/day. Take `Cc1cc(O)c(C(C)(C)C)cc1Sc1cc(C(C)(C)C)c(O)cc1C`: the outcome under setting [1] is “inactive; no positive results”. The same measure, in the same setting: the entry for `C=CC(=O)NCO` is “inactive; no positive results”.

`Oc1ccc(Cl)cc1Cl`: the outcome under setting [1] was “inactive; no positive results”. Turning to `CCBr`, the Potency (TD50_Rat_Note: no positive results are statistically significant, TargetSites_Rat_Female: no positive results) is 149 mg/kg/day. Regarding `Nc1ccc(Cl)c(N)c1`, the Potency under setting [1] is 315 mg/kg/day. `FCCl`: the Potency under setting [2] was 27.5 mg/kg/day. As to `CC1(C)[C@H](C(=O)O[C@H](C#N)c2cccc(Oc3ccccc3)c2)[C@@H]1C=C(Br)Br`, the outcome under setting [1] is “inactive; no positive results”.

On to `Nc1nnc(-c2ccc([N+](=O)[O-])o2)s1`, for which the Potency (TargetSites_Rat_Female: kidney, lung, mammary gland, stomach) is 0.662 mg/kg/day. Take `CC(I)C1OCC(CO)O1` (stereo not drawn): the Potency under setting [1] is 101 mg/kg/day. Turning to `Cc1cnc2ccc3c(nc(N)n3C)c2n1`, the Potency (TD50_Rat_Note: TD50 is harmonic mean of more than one positive test, TargetSites_Rat_Female: clitoral gland, ear Zymbals gland, liver) is 1.66 mg/kg/day. For `CCSC[C@H](N)C(=O)O`, the outcome was “inactive; no positive results”. With `S=c1[nH]c2ccccc2s1`, the Potency (TD50_Rat_Note: TD50 is harmonic mean of more than one positive test, TargetSites_Rat_Female: adrenal gland, pituitary gland) is 344 mg/kg/day.

For the molecule `O=P(OCCCl)(OCCCl)OCCCl`, for the setting “TD50_Rat_Note: TD50 is harmonic mean of more than one positive test, TargetSites_Rat_Female: kidney”, the Potency is 86.7 mg/kg/day. Regarding `ClC/C=C/CCl`, the Potency (TD50_Rat_Note: TD50 is harmonic mean of more than one positive test, TargetSites_Rat_Female: nasal cavity) is 0.297 mg/kg/day.

Take `Nc1nc(N)nc(N)n1`: the Potency under setting [1] is 735 mg/kg/day. As for `O=C(O)c1ccccc1`, the outcome was “inactive; no positive results”. The outcome under setting [1] was “inactive; no positive results”. With `CC(C)(C)NCC(O)c1cc(O)cc(O)c1` (stereo not drawn), the Potency (TargetSites_Rat_Female: mesovarium) is 410 mg/kg/day. In the case of `Nc1cc(Cl)c(N)c(Cl)c1`, the outcome under setting [1] was “inactive; no positive results”. On to `CC(C)(C)O`, for which, under setting [1], the Potency was 64.6 mg/kg/day. For `Cn1cc(C(=O)[C@@H]2CCc3nc[nH]c3C2)c2ccccc21`, the outcome under setting [1] was “inactive; no positive results”. Consider `Cc1ccc(N)cc1N`, for which the Potency is 4.42 mg/kg/day. Also, the Potency (TD50_Rat_Note: TD50 is harmonic mean of more than one positive test, TargetSites_Rat_Female: liver, mammary gland) is 2.47 mg/kg/day. For `CC/C(=C(/CC)c1ccc(O)cc1)c1ccc(O)cc1`, where the note is “TD50_Rat_Note: TD50 is harmonic mean of more than one positive test, greater than ten-fold variation among TD50 values for positive res, TargetSites_Rat_Female: liver, pituitary gland”, the Potency is 0.223 mg/kg/day. As for `Nc1ncn[nH]1`, the Potency (TD50_Rat_Note: TD50 is harmonic mean of more than one positive test, TargetSites_Rat_Female: pituitary gland, thyroid gland) is 9.94 mg/kg/day. `C1N2CN3CN1CN(C2)C3`: under setting [1], the outcome was “inactive; no positive results”. Regarding `CN(C)CNc1nnc(/C=C/c2ccc([N+](=O)[O-])o2)o1`, the Potency (TargetSites_Rat_Female: lung, mammary gland, small intestine, stomach) was 22.4 mg/kg/day. `Cc1cccc(C)c1NC(=O)CN1CCCC1=O`: the outcome under setting [1] was “inactive; no positive results”. Consider `C=CCl`, for which the Potency (TD50_Rat_Note: TD50 is harmonic mean of more than one positive test, greater than ten-fold variation among TD50 values for positive res, TargetSites_Rat_Female: ear Zymbals gland, kidney, liver, mammary gland, nasal cavity, nervous system, vascular system) is 6.11 mg/kg/day.

`C=C(C)C#N`: the outcome under setting [1] is “inactive; no positive results”.

For the molecule `C#CC(OC(N)=O)(c1ccccc1)c1ccc(Cl)cc1` (stereo not drawn), the Potency was 8.78 mg/kg/day.

With `CC[C@H](C)[C@H]1O[C@]2(CC[C@@H]1C)C[C@@H]1C[C@@H](C/C=C(\C)[C@@H](O[C@H]3C[C@H](OC)[C@@H](O[C@H]4C[C@H](OC)[C@@H](O)[C@H](C)O4)[C@H](C)O3)[C@@H](C)/C=C/C=C3\CO[C@@H]4[C@H](O)C(C)=C[C@@H](C(=O)O1)[C@]34O)O2`, the outcome is “inactive; no positive results”. On to `Cn1c(N)nc2ncc(-c3ccccc3)cc21`, for which the Potency (TD50_Rat_Note: TD50 is harmonic mean of more than one positive test, TargetSites_Rat_Female: large intestine, mammary gland) was 1.78 mg/kg/day. As for `CN=C(NC#N)NCCSCc1nc[nH]c1C`, the outcome under setting [1] was “inactive; no positive results”. On the same count and under the same terms, the entry for `CC(O)CO` (stereo not drawn) is “inactive; no positive results”. Regarding `NC(Cc1c[nH]c2ccccc12)C(=O)O` (stereo not drawn), the outcome was “inactive; no positive results”.

As for `CC(C)[N+](=O)[O-]`, under setting [1], the outcome is “inactive; no positive results”.

Consider `O=[N+]([O-])c1ccc(Nc2ccc(Nc3ccccc3)c(S(=O)(=O)O)c2)c([N+](=O)[O-])c1`, for which, for the setting “TargetSites_Rat_Female: kidney”, the Potency is 1710 mg/kg/day.

As for `Clc1ccc(-c2ccc(Cl)c(Cl)c2Cl)c(Cl)c1Cl`, the Potency (TD50_Rat_Note: TD50 is harmonic mean of more than one positive test, TD50_Rat_mmol was not calculated for this mixture, but Activiity S, TargetSites_Rat_Female: liver) is 2.81 mg/kg/day. In the case of `O=C1O[C@H]([C@H](O)CO)C(O)=C1O`, the outcome under setting [1] was “inactive; no positive results”. `CN=C(N)N`: the outcome is “inactive; no positive results”. Still for that read-out and setting: the entry for `Cc1cccc(N)c1` is “inactive; no positive results”.

In the case of `O=C1C2(Cl)C3(Cl)C4(Cl)C(Cl)(Cl)C5(Cl)C3(Cl)C1(Cl)C5(Cl)C24Cl` (stereo not drawn), the Potency (TargetSites_Rat_Female: liver) was 2.96 mg/kg/day. For the molecule `NC(=O)/C(=C\c1ccc([N+](=O)[O-])o1)c1ccco1`, the Potency (TD50_Rat_Note: TD50 is harmonic mean of more than one positive test, greater than ten-fold variation among TD50 values for positive res, TargetSites_Rat_Female: mammary gland) is 29.4 mg/kg/day.

As to `O=S(=O)([O-])[O-].[O]=[V+2]`, the outcome is “inactive; no positive results”. Turning to `O=[N+]([O-])c1ccc(NCCO)c(OCCO)c1`, the outcome under setting [1] was “inactive; no positive results”.

For `Cc1cc(C)c(N=Nc2c(O)c(S(=O)(=O)O)cc3cc(S(=O)(=O)O)ccc23)cc1C`, the Potency (TD50_Rat_Note: TD50 is harmonic mean of more than one positive test, greater than ten-fold variation among TD50 values for positive res, TargetSites_Rat_Female: liver) is 521 mg/kg/day.

With `CNC(=O)O/N=C/C(C)(C)SC`, under setting [1], the outcome was “inactive; no positive results”.

For the molecule `C/C=C(/C)C(=O)O[C@H]1CCN2CC=C(COC(=O)[C@](O)([C@H](C)OC)C(C)(C)O)[C@H]12`, for the setting “TD50_Rat_Note: TD50 is harmonic mean of more than one positive test, TargetSites_Rat_Female: hematopoietic system, liver, vascular system”, the Potency is 0.389 mg/kg/day. With `CCCCC(CC)COP(=O)(OCC(CC)CCCC)OCC(CC)CCCC` (stereo not drawn), the outcome under setting [1] is “inactive; no positive results”.

`CN1CCCC1=O`: under setting [1], the outcome was “inactive; no positive results”.
